Results taken from ChEMBL document CHEMBL1121590, “Synthesis and enzymatic and inotropic activity of some new 8-substituted and 6,8-disubstituted derivatives of adenosine cyclic 3',5'-monophosphate” (J Med Chem, 1980).

Tests used:
Phosphodiesterase 4 = Phosphodiesterase 4 (Homo sapiens, UniProt P27815+Q08499+Q07343+Q08493); settings: Oryctolagus cuniculus; Kidney
Description: Susceptibility to be hydrolysed by a partially purified cAMP phosphodiesterase from rabbit kidney

[1] = Inhibition of cAMP phosphodiesterase preparation from rabbit lung at a substrate concentration of 0.14 uM

| SMILES | Hydrolysis (Phosphodiesterase 4) | I50 [1] |
| --- | --- | --- |
| Cc1ccccc1Sc1nc2c(N)ncnc2n1[C@@H]1O[C@@H]2COP(=O)(O)O[C@H]2[C@H]1O | < 0.05 | 29 µM |
| O=P1(O)OC[C@H]2O[C@@H](n3c(SCc4ccccc4)nc4c(SCc5ccccc5)ncnc43)[C@H](O)[C@@H]2O1 | < 0.05 | 4.6 µM |
| Nc1ncnc2c1nc(SCc1ccc(F)cc1)n2[C@@H]1O[C@@H]2COP(=O)(O)O[C@H]2[C@H]1O | < 0.05 | 38 µM |
| Nc1nc2c(=S)[nH]cnc2n1[C@@H]1O[C@@H]2COP(=O)(O)O[C@H]2[C@H]1O | 0.3 | 83 µM |
| CCCCNc1ncnc2c1ncn2[C@@H]1O[C@@H]2COP(=O)(O)O[C@H]2[C@H]1O | 0.21 | 33 µM |
| CSc1ncnc2c1nc(SC)n2[C@@H]1O[C@@H]2COP(=O)(O)O[C@H]2[C@H]1O | < 0.05 | 50 µM |
| Nc1ncnc2c1nc(Sc1ccc(Br)cc1)n2[C@@H]1O[C@@H]2COP(=O)(O)O[C@H]2[C@H]1O | < 0.05 | 240 µM |
| Cc1ccccc1CSc1nc2c(N)ncnc2n1[C@@H]1O[C@@H]2COP(=O)(O)O[C@H]2[C@H]1O | < 0.05 | 33 µM |
| CCSc1nc2c(N)ncnc2n1[C@@H]1O[C@@H]2COP(=O)(O)O[C@H]2[C@H]1O | < 0.05 | 33 µM |
| CCCCCNc1ncnc2c1nc(SCc1ccccc1)n2[C@@H]1O[C@@H]2COP(=O)(O)O[C@H]2[C@H]1O | < 0.05 | 16 µM |
| Nc1nc2c(Cl)ncnc2n1[C@@H]1O[C@@H]2COP(=O)(O)O[C@H]2[C@H]1O | 0.74 | 200 µM |
| CCCCNc1ncnc2c1nc(Br)n2[C@@H]1O[C@@H]2COP(=O)(O)O[C@H]2[C@H]1O | < 0.05 | – |
| Nc1ncnc2c1nc(SCc1cccnc1)n2[C@@H]1O[C@@H]2COP(=O)(O)O[C@H]2[C@H]1O | < 0.05 | 100 µM |
| Nc1ncnc2c1nc(Cl)n2[C@@H]1O[C@@H]2COP(=O)(O)O[C@H]2[C@H]1O [TOCLADESINE] | < 0.05 | 59 µM |
| CC(C)CNc1ncnc2c1nc(Sc1ccc(Cl)cc1)n2[C@@H]1O[C@@H]2COP(=O)(O)O[C@H]2[C@H]1O | < 0.05 | 1.2 µM |
| Cc1ccc(CSc2nc3c(N)ncnc3n2[C@@H]2O[C@@H]3COP(=O)(O)O[C@H]3[C@H]2O)cc1 | < 0.05 | 13 µM |
| Nc1ncnc2c1nc(O)n2[C@@H]1O[C@@H]2COP(=O)(O)O[C@H]2[C@H]1O | < 0.05 | 150 µM |
| COc1ccc(Sc2nc3c(N)ncnc3n2[C@@H]2O[C@@H]3COP(=O)(O)O[C@H]3[C@H]2O)cc1 | < 0.05 | 48 µM |
| CCN(CC)c1ncnc2c1ncn2[C@@H]1O[C@@H]2COP(=O)(O)O[C@H]2[C@H]1O | 0.09 | 67 µM |
| Nc1ncnc2c1nc(SCc1ccccc1)n2[C@@H]1O[C@@H]2COP(=O)(O)O[C@H]2[C@H]1O | < 0.05 | 53 µM |

| SMILES | Hydrolysis (Phosphodiesterase 4) | I50 [1] |
| --- | --- | --- |
| CNc1ncnc2c1ncn2[C@@H]1O[C@@H]2COP(=O)(O)O[C@H]2[C@H]1O | 0.22 | 50 µM |
| O=P1(O)OC[C@H]2O[C@@H](n3c(SCc4ccccc4)nc4c(N5CCCCC5)ncnc43)[C@H](O)[C@@H]2O1 | < 0.05 | 4.8 µM |
| CCN(CC)c1ncnc2c1nc(Sc1ccc(Cl)cc1)n2[C@@H]1O[C@@H]2COP(=O)(O)O[C@H]2[C@H]1O | < 0.05 | 3.5 µM |
| O=P1(O)OC[C@H]2O[C@@H](n3cnc4c(NCc5ccccc5)ncnc43)[C@H](O)[C@@H]2O1 | 0.3 | 130 µM |
| O=P1(O)OC[C@H]2O[C@@H](n3c(SCc4ccccc4)nc4c(NCc5ccccc5)ncnc43)[C@H](O)[C@@H]2O1 | < 0.05 | 29 µM |
| CSc1nc2c(NCc3ccccc3)ncnc2n1[C@@H]1O[C@@H]2COP(=O)(O)O[C@H]2[C@H]1O | 0.19 | 17 µM |
| CCCCNc1ncnc2c1nc(SC)n2[C@@H]1O[C@@H]2COP(=O)(O)O[C@H]2[C@H]1O | 0.26 | 53 µM |
| CSc1nc2c(N)ncnc2n1[C@@H]1O[C@@H]2COP(=O)(O)O[C@H]2[C@H]1O | < 0.05 | 69 µM |
| Nc1ncnc2c1nc(SC1CCCCC1)n2[C@@H]1O[C@@H]2COP(=O)(O)O[C@H]2[C@H]1O | < 0.05 | 13 µM |
| CCCSc1nc2c(N)ncnc2n1[C@@H]1O[C@@H]2COP(=O)(O)O[C@H]2[C@H]1O | < 0.05 | 37 µM |
| Nc1ncnc2c1nc(Sc1ccccc1)n2[C@@H]1O[C@@H]2COP(=O)(O)O[C@H]2[C@H]1O | < 0.05 | 57 µM |
| O=P1(O)OC[C@H]2O[C@@H](n3c(Br)nc4c(NCc5ccccc5)ncnc43)[C@H](O)[C@@H]2O1 | < 0.05 | 61 µM |
| O=P1(O)OC[C@H]2O[C@@H](n3c(SCc4ccccc4)nc4c(N5CCCC5)ncnc43)[C@H](O)[C@@H]2O1 | < 0.05 | 5 µM |
| O=P1(O)OC[C@H]2O[C@@H](n3cnc4c(Cl)ncnc43)[C@H](O)[C@@H]2O1 | 1.2 | 20 µM |
| Nc1ncnc2c1nc(Br)n2[C@@H]1O[C@@H]2COP(=O)(O)O[C@H]2[C@H]1O | < 0.05 | – |
| Nc1ncnc2c1nc(SCc1ccc(Cl)cc1)n2[C@@H]1O[C@@H]2COP(=O)(O)O[C@H]2[C@H]1O | < 0.05 | 11 µM |
| CCCCN(C)c1ncnc2c1nc(SCc1ccccc1)n2[C@@H]1O[C@@H]2COP(=O)(O)O[C@H]2[C@H]1O | < 0.05 | – |
| C=CCSc1nc2c(N)ncnc2n1[C@@H]1O[C@@H]2COP(=O)(O)O[C@H]2[C@H]1O | < 0.05 | 29 µM |
| O=c1[nH]c2c(Cl)ncnc2n1[C@@H]1O[C@@H]2COP(=O)(O)O[C@H]2[C@H]1O | < 0.05 | > 400 µM |
| Nc1ncnc2c1nc(S)n2[C@@H]1O[C@@H]2COP(=O)(O)O[C@H]2[C@H]1O | < 0.05 | 20 µM |

Next, values leading:

| Hydrolysis (Phosphodiesterase 4) | I50 [1] | SMILES |
| --- | --- | --- |
| < 0.05 | – | Nc1ncnc2c1nc(Sc1ccc(Cl)cc1)n2[C@@H]1O[C@@H]2COP(=O)(O)O[C@H]2[C@H]1O |
| < 0.05 | 36 µM | O=P1(O)OC[C@H]2O[C@@H](n3c(Sc4ccc(Cl)cc4)nc4c(Nc5ccccc5)ncnc43)[C@H](O)[C@@H]2O1 |
| 0.1 | 18 µM | CCN(CC)c1ncnc2c1nc(Cl)n2[C@@H]1O[C@@H]2COP(=O)(O)O[C@H]2[C@H]1O |
| < 0.05 | 30 µM | COc1ccc(CSc2nc3c(N)ncnc3n2[C@@H]2O[C@@H]3COP(=O)(O)O[C@H]3[C@H]2O)cc1 |
| 0.1 | 80 µM | CCN(CC)c1nc2c(Cl)ncnc2n1[C@@H]1O[C@@H]2COP(=O)(O)O[C@H]2[C@H]1O |
| 0.8 | 83 µM | Nc1ncnc2c1nc(N)n2[C@@H]1O[C@@H]2COP(=O)(O)O[C@H]2[C@H]1O |
| 1.1 | 53 µM | O=P1(O)OC[C@H]2O[C@@H](n3cnc4c(=S)[nH]cnc43)[C@H](O)[C@@H]2O1 |
| < 0.05 | 13 µM | CCN(CC)c1ncnc2c1nc(N(CC)CC)n2[C@@H]1O[C@@H]2COP(=O)(O)O[C@H]2[C@H]1O |
| 0.54 | 25 µM | O=P1(O)OC[C@H]2O[C@@H](n3cnc4c(SCc5ccccc5)ncnc43)[C@H](O)[C@@H]2O1 |
| < 0.05 | – | CCCCNc1ncnc2c1nc(Sc1ccc(Cl)cc1)n2[C@@H]1O[C@@H]2COP(=O)(O)O[C@H]2[C@H]1O |
| < 0.05 | 56 µM | CC(C)Sc1nc2c(N)ncnc2n1[C@@H]1O[C@@H]2COP(=O)(O)O[C@H]2[C@H]1O |
| < 0.05 | 27 µM | Nc1ncnc2c1nc(SCc1ccc([N+](=O)[O-])cc1)n2[C@@H]1O[C@@H]2COP(=O)(O)O[C@H]2[C@H]1O |
| < 0.05 | – | CCCN(CCC)c1ncnc2c1nc(SCc1ccccc1)n2[C@@H]1O[C@@H]2COP(=O)(O)O[C@H]2[C@H]1O |
| 0.46 | 80 µM | CSc1ncnc2c1ncn2[C@@H]1O[C@@H]2COP(=O)(O)O[C@H]2[C@H]1O |
| < 0.05 | 2 µM | CC(C)CCNc1ncnc2c1nc(SCc1ccccc1)n2[C@@H]1O[C@@H]2COP(=O)(O)O[C@H]2[C@H]1O |
| < 0.05 | 15 µM | CCCCCSc1nc2c(N)ncnc2n1[C@@H]1O[C@@H]2COP(=O)(O)O[C@H]2[C@H]1O |
| 0.2 | 400 µM | CCNc1ncnc2c1ncn2[C@@H]1O[C@@H]2COP(=O)(O)O[C@H]2[C@H]1O |
| < 0.05 | 10 µM | O=P1(O)OC[C@H]2O[C@@H](n3c(Sc4ccc(Cl)cc4)nc4c(N5CCCCC5)ncnc43)[C@H](O)[C@@H]2O1 |
| < 0.05 | 30 µM | CCCCCCNc1ncnc2c1nc(SCc1ccccc1)n2[C@@H]1O[C@@H]2COP(=O)(O)O[C@H]2[C@H]1O |
| < 0.05 | 25 µM | CCCCSc1nc2c(N)ncnc2n1[C@@H]1O[C@@H]2COP(=O)(O)O[C@H]2[C@H]1O |
| < 0.05 | 400 µM | Nc1ncnc2c1nc(SCC(=O)[O-])n2[C@@H]1O[C@@H]2COP(=O)(O)O[C@H]2[C@H]1O.[Na+] |
| < 0.05 | 25 µM | Nc1ncnc2c1nc(SCc1cccc([N+](=O)[O-])c1)n2[C@@H]1O[C@@H]2COP(=O)(O)O[C@H]2[C@H]1O |
| < 0.05 | 20 µM | Nc1ncnc2c1nc(SCCO)n2[C@@H]1O[C@@H]2COP(=O)(O)O[C@H]2[C@H]1O |
